Paper PMC8569681, “New Pyrimidine and Pyridine Derivatives as Multitarget Cholinesterase Inhibitors: Design, Synthesis, and In Vitro and In Cellulo Evaluation” (ACS Chemical Neuroscience, 2021)
Entries after “also recorded” stand apart in the source; their conditions may differ.

Assays:
[1] = system: U-87 MG cell line; assay: Cytotoxicity, MTT cell viability assay; conditions: 24 h
Procedure: Data represent the absorbance % (± SD) relative to untreated cells in the same experiment and standardized to 100%. All data points were performed in triplicate and at least three independent experiments.
After an incubation time of 24 h, the medium was replaced by a new fresh medium containing 0.5 mg/mL MTT (Sigma, Deisenhofen, Germany). After 2 h at 37 °C in 5% CO2, unreacted dye was removed and cells were dissolved by DMSO (Merck, Darmstadt, Germany). Absorbance was read at 570 nm by a microtiter spectrophotometer plate reader. The data were expressed as absorbance relative to untreated cells in the same experiment and standardized to 100%. All data points were performed in triplicate and at least three independent experiments.

[2] = Antioxidant activity, DPPH spectrophotometric method; conditions: for antioxidant activity (reaction with DPPH): DPPH about 25 μM, antioxidant 60 μM; for reaction time (time for reaching the plateau): DPPH, absorbance at 515 nm
Procedure: The antioxidant activity assays were carried out according to the 2,2-diphenyl-1-picrylhydrazyl (DPPH) spectrophotometric method.[34] Initially, to assess whether the compounds had antioxidant activity and to define the time required by each antioxidant to reach the steady state, the reduction in absorbance over time at 515 nm of a solution of DPPH mixed with the tested compound was recorded until reaching the plateau. […] The value of EC50 can be extrapolated by plotting the percentage of residual DPPH at the steady state as a function of the molar ratio of the antioxidant to initial DPPH.
2,2-Diphenyl-1-picrylhydrazyl (DPPH), MeOH, and ascorbic acid, used as the reference standard, were purchased from Sigma-Aldrich. Micropipettes Labmate (BRAND Dig. 10–100 μL; Dig. 100–1000 μL) and Transferpette (HIGH TECH LAB LM200: 20–200 μL; LM5000: 1000–5000 μL) were used to collect the samples. The assays were carried out by a double beam UV–vis Lambda 40 Perkin Elmer spectrophotometer using optical polystyrene cuvettes (10 × 10 × 45 mm, 340–800 nm optical transparency); each measure was repeated at least in triplicate. For data processing, UV-WIN Lab version 2.0 (Perkin Elmer Corporation) was used. The antioxidant activity of the tested compounds was evaluated by the DPPH method[34] based on the ability of antioxidant compounds to react with the stable radical DPPH, which has a maximum absorption at about 515 nm. Thus, by measuring the decrease in absorbance over time of DPPH solutions to which increasing amounts of the tested compound are added, the antioxidant activity of the compound can be determined.
[…]. To 2.90 mL of MeOH, 60 μL of a DPPH solution in MeOH (∼1.2 mM) and 40 μL of an antioxidant solution in MeOH (4.5 mM) were added to have in the cuvette concentrations of DPPH equal to about 25 μM and of antioxidant equal to 60 μM. The exact DPPH concentration was calculated through the Lambert–Beer relation, known the extinction coefficient of DPPH at 515 nm, equal to 1.25 × 10^4.[34] The absorbance was recorded until the plateau was reached.
. To obtain the initial DPPH concentration, 2.94 mL of MeOH and 60 μL of the DPPH solution in MeOH (∼1.2 mM) were placed in a polystyrene cuvette and the absorbance was recorded at 515 nm. The exact initial DPPH concentration was calculated through the Lambert–Beer relation. For subsequent measurements, the cuvettes were set up by introducing the opportune volume of MeOH to reach a total volume of 3 mL, 60 μL of the DPPH solution in MeOH (∼1.2 mM, to have a final concentration of ∼25 μM), and the appropriate volumes of the antioxidant stock solution in MeOH to have final concentrations between 1.5 and 12 μM for 20 and between 5 and 60 μM for 18 and 30; the absorbance was recorded at 515 nm at the plateau and then after 1 min for compound 20 and after 90 min for compounds 18 and 30. Each measure was repeated four times. With absorbance data, the percentages of residual DPPH at steady state were obtained using the following equation: [drawing 3] where Ac is the average of absorbance in the presence of antioxidant at plateau and A0 is the average of the initial absorbance of DPPH.
The same procedure was performed using ascorbic acid as the antioxidant at cuvette concentrations between 1.5 and 18 μM, recording the absorbance at 515 nm after 2 min from the preparation of the cuvettes.

[3] = target: T1, Electrophorus electricus AChE (EeAChE) (Electrophorus electricus, UniProt O42275); assay: biochemical; conditions: 100 μM acetylthiocholine; read-out: EeAChE, IC50 ± SE
T1 construct: purchased Sigma-Aldrich (Milan, Italy)
T1 sequence (O42275 24-633): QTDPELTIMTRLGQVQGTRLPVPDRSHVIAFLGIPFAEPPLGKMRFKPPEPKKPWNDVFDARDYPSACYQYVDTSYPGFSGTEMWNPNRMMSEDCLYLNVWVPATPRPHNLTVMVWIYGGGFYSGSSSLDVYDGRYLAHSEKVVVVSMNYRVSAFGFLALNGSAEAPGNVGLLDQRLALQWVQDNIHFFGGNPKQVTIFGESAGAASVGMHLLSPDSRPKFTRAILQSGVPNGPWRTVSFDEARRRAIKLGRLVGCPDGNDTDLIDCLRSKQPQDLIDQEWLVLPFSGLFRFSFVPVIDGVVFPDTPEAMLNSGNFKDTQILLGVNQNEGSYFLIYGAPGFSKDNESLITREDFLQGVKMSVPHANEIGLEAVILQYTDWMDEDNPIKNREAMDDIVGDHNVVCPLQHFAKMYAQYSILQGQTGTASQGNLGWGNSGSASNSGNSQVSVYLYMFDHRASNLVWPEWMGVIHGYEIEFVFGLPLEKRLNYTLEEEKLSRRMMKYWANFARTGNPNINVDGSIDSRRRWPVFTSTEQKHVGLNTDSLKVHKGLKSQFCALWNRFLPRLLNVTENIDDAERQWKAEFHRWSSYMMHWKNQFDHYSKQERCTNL
Procedure: The recorded data were analyzed with the enzyme kinetic module of SigmaPlot. All measurements were replicated three times, and the IC50 value obtained was confirmed by repeating the experiment twice.
For this purpose, eight different inhibitor solutions were prepared. […] The recorded data were analyzed by the enzyme kinetic module of SigmaPlot plotting the percentages of inhibition as a function of the different concentrations of the inhibitor, expressed in logarithmic scale, to obtain the sigmoid graph, from which it was possible to determine the IC50 value of the tested compound. The IC50 was confirmed by repeating the experiment twice.

Compound | cytotoxic effect on U-87 MG cells ([1]; 1 to 50 μM) | antioxidant activity (reaction with DPPH) [2] | reaction time (time for reaching the plateau) [2] | IC50 [3] | cytotoxicity on U-87 MG cells ([1]; concentrations up to 10 μM)
c1cnc(NCCCCCCNCc2c[nH]c3ccccc23)nc1 [Compound 22, N^1-((1H-Indol-3-yl)methyl)-N^6-(pyrimidin-2-yl)hexane-1,6-diamine] | more pronounced cytotoxic effect |  |  |  | 
COc1cc(CNCCCCCCNc2ncccn2)ccc1O [Compound 18, 2-Methoxy-4-(((6-(pyrimidin-2-ylamino)hexyl)amino)methyl)phenol] |  | antioxidant properties; also recorded: showed antioxidant activity; also recorded: possess antioxidant activity | 90 min |  | 
COc1cc(CNCCCCCCNc2ccccn2)ccc1O [Compound 30, 2-Methoxy-4-(((6-(pyridin-2-ylamino)hexyl)amino)methyl)phenol] |  | antioxidant properties; also recorded: showed antioxidant activity; also recorded: possess antioxidant activity | 90 min |  | 
Oc1cccc(CNCCCCCCNc2ncccn2)c1 [Compound 19, 3-(((6-(Pyrimidin-2-ylamino)hexyl)amino)methyl)phenol] |  | did not show a significant ability to interact with DPPH; also recorded: no significant antioxidant capacity |  |  | 
Oc1cccc(CNCCCCCCNc2ncccn2)c1O [Compound 20, 3-(((6-(Pyrimidin-2-ylamino)hexyl)amino)methyl)benzene-1,2-diol] |  | antioxidant properties; also recorded: showed antioxidant activity; also recorded: possess antioxidant activity; also recorded: most efficient antioxidant | 1 min | 622 nM | not cytotoxic
